System: MV-4-11 cells
Test: Gene expression microarray analysis (Affymetrix PrimeView) and GSEA
Assay type: cell-based, human
Design: RFU PODN (11730768_x_at) / Fold change /veh PODN (11730768_x_at) / RFU LINC00158 (11744669_a_at) / Fold change /veh LINC00158 (11744669_a_at) / RFU DUSP10 (11751237_a_at) / Fold change /veh DUSP10 (11751237_a_at) / RFU ID3 (11757404_x_at) / Fold change /veh ID3 (11757404_x_at) / RFU PLEKHG5 (11737974_s_at) / Fold change /veh PLEKHG5 (11737974_s_at) / RFU LRRC4B (11730491_at) / Fold change /veh LRRC4B (11730491_at) / RFU GIMAP4 (11747438_a_at) / Fold change /veh GIMAP4 (11747438_a_at) / RFU KRT8 (11758183_x_at) / Fold change /veh KRT8 (11758183_x_at) / RFU CNN1 (11734310_a_at) / Fold change /veh CNN1 (11734310_a_at) / RFU VPS37D (11726825_at) / Fold change /veh VPS37D (11726825_at) / RFU C10orf10 (11716522_x_at) / Fold change /veh C10orf10 (11716522_x_at) / RFU KIR2DL2 /// KIR2DL4 /// KIR2DL5A /// KIR2DL5B /// KIR2DS1 /// KIR2DS2 /// KIR2DS3 /// KIR2DS4 /// KIR3DL3 /// KIR3DL3 /// KIR3DS1 (11738374_at) / Fold change /veh KIR2DL2 /// KIR2DL4 /// KIR2DL5A /// KIR2DL5B /// KIR2DS1 /// KIR2DS2 /// KIR2DS3 /// KIR2DS4 /// KIR3DL3 /// KIR3DL3 /// KIR3DS1 (11738374_at) / RFU C1QL1 (11718748_at) / Fold change /veh C1QL1 (11718748_at) / RFU TMPRSS4 (11747572_a_at) / Fold change /veh TMPRSS4 (11747572_a_at) / RFU HAMP (11756126_x_at) / Fold change /veh HAMP (11756126_x_at) / RFU RNFT2 (11725882_a_at) / Fold change /veh RNFT2 (11725882_a_at) / RFU NR4A2 (11747474_a_at) / Fold change /veh NR4A2 (11747474_a_at) / RFU ABCC12 (11746883_a_at) / Fold change /veh ABCC12 (11746883_a_at) / RFU TMEM136 (11760407_x_at) / Fold change /veh TMEM136 (11760407_x_at) / RFU CLDN22 /// WWC2 (11732394_at) / Fold change /veh CLDN22 /// WWC2 (11732394_at) / RFU HLA-DPB1 (11760878_x_at) / Fold change /veh HLA-DPB1 (11760878_x_at) / RFU SPINT1 (11716480_a_at) / Fold change /veh SPINT1 (11716480_a_at) / RFU GAP43 (11754022_s_at) / Fold change /veh GAP43 (11754022_s_at) / RFU A4GNT (11735810_at) / Fold change /veh A4GNT (11735810_at) / RFU PRB3 (11715151_x_at) / Fold change /veh PRB3 (11715151_x_at) / RFU TUBB4B (11761932_at) / Fold change /veh TUBB4B (11761932_at) / RFU CAPN14 (11732068_a_at) / Fold change /veh CAPN14 (11732068_a_at) / RFU TMCC2 (11721928_a_at) / Fold change /veh TMCC2 (11721928_a_at) / RFU IRGQ (11745062_a_at) / Fold change /veh IRGQ (11745062_a_at) / RFU FAM174B (11720279_a_at) / Fold change /veh FAM174B (11720279_a_at) / RFU TMPRSS4 (11748680_a_at) / Fold change /veh TMPRSS4 (11748680_a_at) / RFU FAM212B (11763350_a_at) / Fold change /veh FAM212B (11763350_a_at) / RFU PLEKHG5 (11743358_a_at) / Fold change /veh PLEKHG5 (11743358_a_at) / RFU ZSCAN30 (11745921_a_at) / Fold change /veh ZSCAN30 (11745921_a_at) / RFU CMKLR1 (11741424_a_at) / Fold change /veh CMKLR1 (11741424_a_at) / RFU LOC101060620 /// MAPK8IP1 (11723275_at) / Fold change /veh LOC101060620 /// MAPK8IP1 (11723275_at) / RFU SPTSSB (11747773_x_at) / Fold change /veh SPTSSB (11747773_x_at) / RFU PRSS12 (11739890_at) / Fold change /veh PRSS12 (11739890_at) / RFU BIN1 (11741810_x_at) / Fold change /veh BIN1 (11741810_x_at) / RFU WNT11 (11732464_a_at) / Fold change /veh WNT11 (11732464_a_at) / RFU C10orf10 (11716521_a_at) / Fold change /veh C10orf10 (11716521_a_at) / RFU C5orf56 (11738089_at) / Fold change /veh C5orf56 (11738089_at) / RFU CYB561 (11721691_x_at) / Fold change /veh CYB561 (11721691_x_at) / RFU ANKRD19P (11752326_a_at) / Fold change /veh ANKRD19P (11752326_a_at) / RFU OR2T12 /// OR2T33 /// OR2T8 (11738714_s_at) / Fold change /veh OR2T12 /// OR2T33 /// OR2T8 (11738714_s_at) / RFU VCAN (11748164_a_at) / Fold change /veh VCAN (11748164_a_at) / RFU JSRP1 (11732532_at) / Fold change /veh JSRP1 (11732532_at) / RFU KRTAP10-11 (11738290_x_at) / Fold change /veh KRTAP10-11 (11738290_x_at) / RFU MYO3A (11730013_a_at) / Fold change /veh MYO3A (11730013_a_at) / RFU EBF3 (11725865_a_at) / Fold change /veh EBF3 (11725865_a_at) / RFU CAMK2N1 (11719241_x_at) / Fold change /veh CAMK2N1 (11719241_x_at) / RFU C5orf56 (11738088_a_at) / Fold change /veh C5orf56 (11738088_a_at) / RFU OLFML3 (11715873_a_at) / Fold change /veh OLFML3 (11715873_a_at) / RFU LOC100653217 /// NTM (11731650_a_at) / Fold change /veh LOC100653217 /// NTM (11731650_a_at) / RFU MAPK11 (11762145_a_at) / Fold change /veh MAPK11 (11762145_a_at) / RFU FIZ1 (11724087_x_at) / Fold change /veh FIZ1 (11724087_x_at) / RFU OASL (11726364_x_at) / Fold change /veh OASL (11726364_x_at) / RFU SOX15 (11748057_x_at) / Fold change /veh SOX15 (11748057_x_at) / RFU CD79A (11719716_a_at) / Fold change /veh CD79A (11719716_a_at) / RFU HIST1H1D (11736915_at) / Fold change /veh HIST1H1D (11736915_at) / RFU CASKIN2 (11723855_a_at) / Fold change /veh CASKIN2 (11723855_a_at) / RFU LOC730098 (11760151_x_at) / Fold change /veh LOC730098 (11760151_x_at) / RFU OR4N2 (11742367_at) / Fold change /veh OR4N2 (11742367_at) / RFU PRRT2 (11749266_a_at) / Fold change /veh PRRT2 (11749266_a_at) / RFU SNX32 (11753110_a_at) / Fold change /veh SNX32 (11753110_a_at) / RFU CDHR5 (11726645_a_at) / Fold change /veh CDHR5 (11726645_a_at) / RFU RCAN1 (11760418_a_at) / Fold change /veh RCAN1 (11760418_a_at) / RFU FAM167A (11723789_a_at) / Fold change /veh FAM167A (11723789_a_at) / RFU FAM26E (11764081_at) / Fold change /veh FAM26E (11764081_at) / RFU ISYNA1 (11749810_s_at) / Fold change /veh ISYNA1 (11749810_s_at) / RFU ACY1 (11761880_at) / Fold change /veh ACY1 (11761880_at) / RFU 11764098_at / Fold change /veh 11764098_at / RFU SAMD14 (11745864_x_at) / Fold change /veh SAMD14 (11745864_x_at) / RFU NPB (11741838_a_at) / Fold change /veh NPB (11741838_a_at) / RFU TMPRSS6 (11731388_a_at) / Fold change /veh TMPRSS6 (11731388_a_at) / RFU KRTAP10-2 (11738614_at) / Fold change /veh KRTAP10-2 (11738614_at) / RFU ARHGAP8 /// PRR5-ARHGAP8 (11727945_x_at) / Fold change /veh ARHGAP8 /// PRR5-ARHGAP8 (11727945_x_at) / RFU KRTAP5-7 /// NADSYN1 (11734609_at) / Fold change /veh KRTAP5-7 /// NADSYN1 (11734609_at) / RFU RASL12 (11751679_a_at) / Fold change /veh RASL12 (11751679_a_at) / RFU CDKN2B (11736163_a_at) / Fold change /veh CDKN2B (11736163_a_at) / RFU PRF1 (11729649_at) / Fold change /veh PRF1 (11729649_at) / RFU, ZNF638 /// ZNF638-IT1 / Fold change vs veh, ZNF638 /// ZNF638-IT1 / RFU, PANK3 / Fold change vs veh, PANK3 / RFU, SH3YL1 / Fold change vs veh, SH3YL1 / RFU, ZEB2 / Fold change vs veh, ZEB2 / RFU, NRIP1 / Fold change vs veh, NRIP1 / RFU, PTTG1IP / Fold change vs veh, PTTG1IP / RFU, CAPN2 / Fold change vs veh, CAPN2 / RFU, MED14 / Fold change vs veh, MED14 / RFU, SNORA58 / Fold change vs veh, SNORA58 / RFU, C1orf63 / Fold change vs veh, C1orf63 / RFU, LRRFIP1 / Fold change vs veh, LRRFIP1 / RFU, NDUFAF7 / Fold change vs veh, NDUFAF7 / RFU, SLC12A2 / Fold change vs veh, SLC12A2 / RFU, IBTK / Fold change vs veh, IBTK / RFU, ESF1 / Fold change vs veh, ESF1 / Fold change vs veh, TMEM50B / RFU, TAOK1 / Fold change vs veh, TAOK1 / RFU, ACBD3 / Fold change vs veh, ACBD3 / RFU, TMA16 / Fold change vs veh, TMA16 / RFU, RWDD3 / Fold change vs veh, RWDD3 / RFU, BCAT1 / Fold change vs veh, BCAT1 / RFU, EDEM3 / Fold change vs veh, EDEM3 / RFU, TMEM33 / Fold change vs veh, TMEM33 / RFU, WDR75 / Fold change vs veh, WDR75 / RFU, AHCTF1 / Fold change vs veh, AHCTF1 / RFU, TFRC / Fold change vs veh, TFRC / RFU, ZDHHC17 / Fold change vs veh, ZDHHC17 / RFU, NOM1 / Fold change vs veh, NOM1 / RFU, ARL8B / Fold change vs veh, ARL8B / RFU, ZBTB11 / Fold change vs veh, ZBTB11 / RFU, TAMM41 / Fold change vs veh, TAMM41 / RFU, KIAA1704 /// LOC100996395 / Fold change vs veh, KIAA1704 /// LOC100996395 / RFU, ING1 / Fold change vs veh, ING1 / RFU, TRMT61B / Fold change vs veh, TRMT61B / RFU, FUBP3 / Fold change vs veh, FUBP3 / RFU, TP53 / Fold change vs veh, TP53 / RFU, TNKS2 / Fold change vs veh, TNKS2 / RFU, ZFP14 / Fold change vs veh, ZFP14 / RFU, ACTR2 / Fold change vs veh, ACTR2 / RFU, PPP3R1 / Fold change vs veh, PPP3R1 / RFU, PIK3R1 / Fold change vs veh, PIK3R1 / RFU, HNRNPA1 / Fold change vs veh, HNRNPA1 / RFU, RNF170 / Fold change vs veh, RNF170 / RFU, ZNF28 / Fold change vs veh, ZNF28 / RFU, RNGTT / Fold change vs veh, RNGTT / RFU, OGT / Fold change vs veh, OGT / RFU, BRD1 / Fold change vs veh, BRD1 / RFU, MARS / Fold change vs veh, MARS / RFU, ZNF655 / Fold change vs veh, ZNF655 / RFU, FAHD1 / Fold change vs veh, FAHD1 / RFU, BDP1 / Fold change vs veh, BDP1 / RFU, LRRCC1 / Fold change vs veh, LRRCC1 / RFU, ARID1A / Fold change vs veh, ARID1A / RFU, ZNF146 / Fold change vs veh, ZNF146 / RFU, ZNF330 / Fold change vs veh, ZNF330 / RFU, GPN3 / Fold change vs veh, GPN3 / RFU, C9orf123 / Fold change vs veh, C9orf123 / RFU, N4BP2L2 / Fold change vs veh, N4BP2L2 / RFU, ARFIP1 / Fold change vs veh, ARFIP1 / RFU, FAM179B / Fold change vs veh, FAM179B / RFU, BCL10 / Fold change vs veh, BCL10 / RFU, UHRF1BP1L / Fold change vs veh, UHRF1BP1L / RFU, BET1 / Fold change vs veh, BET1 / RFU, CNOT2 / Fold change vs veh, CNOT2 / RFU, ZNF268 / Fold change vs veh, ZNF268 / Fold change vs veh, ZNF507 / RFU, DGCR2 / Fold change vs veh, DGCR2 / RFU, WDSUB1 / Fold change vs veh, WDSUB1 / Fold change vs veh, HSP90B1 /// MIR3652 / RFU, ADSS / Fold change vs veh, ADSS / RFU, GK / Fold change vs veh, GK / RFU, ZNF148 / Fold change vs veh, ZNF148 / RFU, TAF9 / Fold change vs veh, TAF9 / RFU, SLC1A5 / Fold change vs veh, SLC1A5 / RFU, SLMO2 / Fold change vs veh, SLMO2 / RFU, ABCC4 / Fold change vs veh, ABCC4 / RFU, LOC101060439 /// RAP1B / Fold change vs veh, LOC101060439 /// RAP1B / RFU, RFX7 / Fold change vs veh, RFX7 / RFU, GTPBP10 / Fold change vs veh, GTPBP10 / RFU, CNEP1R1 / Fold change vs veh, CNEP1R1 / RFU, BIVM-ERCC5 /// ERCC5 / Fold change vs veh, BIVM-ERCC5 /// ERCC5 / RFU, ILF3 / Fold change vs veh, ILF3 / RFU 11762660_at / Fold change /veh 11762660_at / RFU VCAN (11757783_s_at) / Fold change /veh VCAN (11757783_s_at) / RFU DDX43 (11728927_at) / Fold change /veh DDX43 (11728927_at) / RFU KRT8 (11758188_x_at) / Fold change /veh KRT8 (11758188_x_at) / RFU NKD1 (11759106_at) / Fold change /veh NKD1 (11759106_at) / RFU SRD5A1 (11742802_a_at) / Fold change /veh SRD5A1 (11742802_a_at) / RFU TPSAB1 /// TPSB2 (11721975_s_at) / Fold change /veh TPSAB1 /// TPSB2 (11721975_s_at) / RFU GSTM3 (11746129_a_at) / Fold change /veh GSTM3 (11746129_a_at) / RFU IL23R (11737362_x_at) / Fold change /veh IL23R (11737362_x_at) / RFU TMEM51 (11727254_a_at) / Fold change /veh TMEM51 (11727254_a_at) / RFU PIWIL2 (11732686_x_at) / Fold change /veh PIWIL2 (11732686_x_at) / RFU ORM1 (11744905_x_at) / Fold change /veh ORM1 (11744905_x_at) / RFU CCDC152 (11743942_at) / Fold change /veh CCDC152 (11743942_at) / RFU ECM1 (11717891_a_at) / Fold change /veh ECM1 (11717891_a_at) / RFU IL23R (11748794_a_at) / Fold change /veh IL23R (11748794_a_at) / RFU TNFAIP8L3 (11732012_x_at) / Fold change /veh TNFAIP8L3 (11732012_x_at) / RFU MBOAT4 (11741988_at) / Fold change /veh MBOAT4 (11741988_at) / RFU 11764193_at / Fold change /veh 11764193_at / RFU TMEM53 (11763286_at) / Fold change /veh TMEM53 (11763286_at) / RFU MAGEB2 (11727129_at) / Fold change /veh MAGEB2 (11727129_at) / RFU TMEM200A (11744735_a_at) / Fold change /veh TMEM200A (11744735_a_at) / RFU CCDC152 (11751479_a_at) / Fold change /veh CCDC152 (11751479_a_at) / RFU FAM211A (11726209_a_at) / Fold change /veh FAM211A (11726209_a_at) / RFU RGS16 (11746705_a_at) / Fold change /veh RGS16 (11746705_a_at) / RFU VCAN (11755009_s_at) / Fold change /veh VCAN (11755009_s_at) / RFU RHOB (11743442_s_at) / Fold change /veh RHOB (11743442_s_at) / RFU RGS16 (11720943_a_at) / Fold change /veh RGS16 (11720943_a_at) / RFU RGS16 (11720944_at) / Fold change /veh RGS16 (11720944_at) / RFU, VPS4B / Fold change vs veh, VPS4B / RFU, CREB1 / Fold change vs veh, CREB1 / RFU, DNAJC13 / Fold change vs veh, DNAJC13 / RFU, GNAQ / Fold change vs veh, GNAQ / RFU, CDK5R1 / Fold change vs veh, CDK5R1 / RFU, ZRANB3 / Fold change vs veh, ZRANB3 / RFU, CUL4A / Fold change vs veh, CUL4A / RFU, CCNY / Fold change vs veh, CCNY / RFU, UFL1 / Fold change vs veh, UFL1 / RFU, COG3 / Fold change vs veh, COG3 / RFU, DIAPH2 / Fold change vs veh, DIAPH2 / RFU, SKA2 / Fold change vs veh, SKA2 / RFU, AFF3 / Fold change vs veh, AFF3 / RFU, LMF1 / Fold change vs veh, LMF1 / RFU, IPO11 / Fold change vs veh, IPO11 / RFU, DFFB / Fold change vs veh, DFFB / RFU, FOXP1 / Fold change vs veh, FOXP1 / RFU, CARD8 / Fold change vs veh, CARD8 / RFU, STRN3 / Fold change vs veh, STRN3 / RFU, ADK / Fold change vs veh, ADK / RFU, RASSF2 / Fold change vs veh, RASSF2 / RFU, WIPF1 / Fold change vs veh, WIPF1 / RFU, LARP1B / Fold change vs veh, LARP1B / RFU, RASA1 / Fold change vs veh, RASA1 / RFU, RB1 / Fold change vs veh, RB1 / RFU, PPFIA1 / Fold change vs veh, PPFIA1 / RFU, MAT2A / Fold change vs veh, MAT2A / RFU, CCT5 / Fold change vs veh, CCT5 / RFU, WDR92 / Fold change vs veh, WDR92 / RFU, CUX1 / Fold change vs veh, CUX1 / RFU, TTC7A / Fold change vs veh, TTC7A / RFU, TMEM135 / Fold change vs veh, TMEM135 / RFU, DEPTOR / Fold change vs veh, DEPTOR / RFU, CPM / Fold change vs veh, CPM / RFU, DNAJB6 / Fold change vs veh, DNAJB6 / RFU, CACNA2D3 / Fold change vs veh, CACNA2D3 / RFU, DTX4 / Fold change vs veh, DTX4 / RFU, TFCP2 / Fold change vs veh, TFCP2 / RFU, GMCL1 /// GMCL1P1 / Fold change vs veh, GMCL1 /// GMCL1P1 / RFU, AEBP2 / Fold change vs veh, AEBP2 / RFU, SNHG1 /// SNORD22 /// SNORD25 /// SNORD26 /// SNORD27 /// SNORD28 /// SNORD29 /// SNORD31 / Fold change vs veh, SNHG1 /// SNORD22 /// SNORD25 /// SNORD26 /// SNORD27 /// SNORD28 /// SNORD29 /// SNORD31 / Fold change (Aza/veh), C12orf56 (ProbeSet 11735607_a_at) / Fold change (ACY-1035/veh), C12orf56 (ProbeSet 11735607_a_at) / Fold change (Aza/veh), FGFR1OP (ProbeSet 11751329_s_at) / Fold change (ACY-1035/veh), FGFR1OP (ProbeSet 11751329_s_at) / Fold change (Aza/veh), VPS36 (ProbeSet 11739960_a_at) / Fold change (ACY-1035/veh), VPS36 (ProbeSet 11739960_a_at) / RFU SYPL1 (11715823_x_at) / Fold change /veh SYPL1 (11715823_x_at) / RFU IGFBP7 (11715501_s_at) / Fold change /veh IGFBP7 (11715501_s_at) / RFU REEP3 (11722064_at) / Fold change /veh REEP3 (11722064_at) / RFU IGLL1 (11728026_x_at) / Fold change /veh IGLL1 (11728026_x_at): dose or concentration left out as unconfirmed
Conditions: ProbeSet 11732165_x_at; LIST D

SMILES: Nc1ccc(-c2cccs2)cc1NC(=O)c1ccc2c(c1)cc(C1CC1)n2CCN1CCOCC1 [ACY-1035]
- RFU, LMF1: 59.92 RFU
